Active and inactive are the calls of the source. No cut-off for these calls is given here.
Key:
[1] = target: Protein kinase C alpha type (Homo sapiens) (UniProt P17252); experiment: Inhibition of TPA-induced membrane translocation of PKCalpha expressed in HEK293 cells assessed as protein found in membrane fraction at 100 uM after 2 hrs by Western blotting relative to TPA; format: cell-based; parameters: scale not given: the % may be the effect or the level left
[2] = target: Protein kinase C alpha type (Homo sapiens) (UniProt P17252); experiment: Inhibition of membrane translocation of PKCalpha expressed in HEK293 cells assessed as increase of protein found in membrane fraction at 100 uM after 2 hrs by Western blotting relative to resveratrol; format: cell-based; parameters: scale not given: the % may be the effect or the level left
HEK293 [3] = experiment: Cytotoxicity against HEK293 cells assessed as increase in cell viability at 100 uM after 48 hrs by MTT assay relative to resveratrol; format: cell-based; conditions: human, hek293, 48 h
[4] = target: Protein kinase C alpha type (Homo sapiens) (UniProt P17252); experiment: Binding affinity to recombinant C1B domain of PKCalpha expressed in Escherichia coli BL21 (DE3) after 45 mins by fluorescence quenching assay
[5] = target: Protein kinase C alpha type (Homo sapiens) (UniProt P17252); experiment: Inhibition of membrane translocation of PKCalpha expressed in HEK293 cells at 100 uM after 2 hrs by Western blotting; format: cell-based
HEK293 [6] = experiment: Cytotoxicity against HEK293 cells assessed as decrease in cell viability at 100 uM after 48 hrs by MTT assay relative to control; format: cell-based; conditions: human, hek293, 48 h

Row | Structure (SMILES) | Activity [1] | Activity [2] | fold change (FC) (HEK293 [3]) | Activity [4] | Activity (HEK293 [3]) | inhibition [5] | Activity (HEK293 [6])
1 | COc1cc(/C=C/c2cc(OC)c(OC)c(OC)c2)cc(OC)c1OC | 44.8% | 20% | 2 | – | – | – | –
2 | CCCCCCCCCCCCCCCCOc1cc(/C=C/c2ccc(O)cc2)cc(OCCCCCCCCCCCCCCCC)c1 | 78.8% | 20% | 2 | – | – | – | –
3 | CCCCCCCCCCCCCCCCOc1ccc(/C=C/c2cc(O)cc(O)c2)cc1 | 79.8% | 20% | 2 | Active | – | – | –
4 | COc1ccc(/C=C/c2cc(OC)cc(OC)c2)cc1 [TRISMETHOXYRESVERATROL] | 31.9% | 20% | 4 | Active | – | – | –
5 | Oc1cc(/C=C/c2cc(O)c(O)c(O)c2)cc(O)c1O | 29.8% | 20% | – | Active | 25% | – | –
6 | Oc1ccc(/C=C/c2cc(O)cc(O)c2)cc1 [RESVERATROL] | 60% | – | – | Active | – | 5% | 20%
7 | CCCCCCCCOc1cc(/C=C/c2ccc(O)cc2)cc(OCCCCCCCC)c1 | 65.7% | 20% | 4 | – | – | – | –
8 | CCCCCCCCOc1ccc(/C=C/c2cc(O)cc(O)c2)cc1 | 85.2% | 20% | 4 | – | – | – | –
9 | CCCCCCCCCCCCCCCCOc1c(O)cc(/C=C/c2cc(O)c(O)c(O)c2)cc1O | 68.3% | 20% | – | – | 25% | – | –
